Where “and” joins values, the source holds several entries; their conditions need not be identical. Equal entries are not always repeated.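 How tested: cells in 96-well plates exposed to compound for 48 hours at five concentrations. GI50 marks 50% less growth. TGI marks complete inhibition of growth.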
Key:
Experiment in all cases: NCI anticancer screen, dose series, 48 h
[1] = system: EKVX NSCLC
[2] = system: HCT-116 colon
[3] = system: HL-60(TB) leukemia
[4] = system: MDA-MB-231 breast
[5] = system: NCI-H226 lung
[6] = system: SF-295 CNS
[7] = system: SK-OV-3 ovarian
[8] = system: SNB-75 CNS
[9] = system: SR leukemia
[10] = system: SW-620 colon

SMILES | GI50 [1] [µM] | TGI [1] [µM] | GI50 [2] | TGI [2] [µM] | GI50 [3] | TGI [3] [µM] | GI50 [4] | TGI [4] [µM] | GI50 [5] | TGI [5] [µM] | GI50 [6] | TGI [6] [µM] | GI50 [7] | TGI [7] [µM] | GI50 [8] | GI50 [9] | TGI [9] [µM] | GI50 [10] | TGI [10] [µM] | TGI [8] [µM]
COc1ccccc1S(=O)(=O)Nc1ccc2c(c1)CN(C)C(=O)N2 | 20.3 | > 100 | 4.6 µM and 4.38 µM | > 100 | 1.18 µM and 2.7 µM | > 100 | 4.28 µM and 7.34 µM | > 100 | 9.98 µM and 16 µM | > 100 | 6.48 µM and 9.42 µM | > 100 | 4.47 µM and 5.15 µM | > 100 | 0.266 µM and 0.481 µM | 2.4 µM and 3.49 µM | > 100 | 20.3 µM and 14.5 µM | > 100 | –
CCOC(=O)Nc1ccc(-c2nc(-c3cccc(OC)c3)c(-c3ccnc(Br)c3)[nH]2)cc1 | 2.45 | 8.8 | – | – | 2.34 µM | 7.41 | 3.27 µM | > 100 | 2.21 µM | 7.78 | 0.416 µM | 2.93 | 3.9 µM | > 100 | 2.14 µM | 2.88 µM | > 100 | 3.19 µM | > 100 | > 100
CN(CCCl)c1ccc(/C=C/C2=[N+](C)c3ccccc3C2(C)C)cc1 | 0.863 | 14.9 | 0.307 µM | 12.2 | 0.265 µM | 0.756 | 0.579 µM | 5.59 | 1.21 µM | 14.9 | 0.728 µM | 5.14 | 0.713 µM | 5.41 | 1.2 µM | 0.332 µM | 12.5 | 0.494 µM | 14 | 6.91
O=C(O)C1(Cc2cccc(Nc3nccs3)n2)CCC(Oc2cccc(Cl)c2F)CC1 (stereo not given) | 13.6 | 47.4 | 0.64 µM | 30.5 | 3.43 µM | > 67.3 | 14.7 µM | 41.6 | 11.6 µM | 39.6 | 1.31 µM | 27.9 | 12.8 µM | 46 | 11 µM | 0.419 µM | 50.3 | 4.31 µM | > 58.9 | 62.2
CNC1C(O)C(OC2C(N)CC(N)C(OC3OC(C(C)O)C(O)C(O)C3N)C2O)OCC1(C)O (stereo not given) | – | > 100 | – | > 100 | – | > 100 | – | > 100 | – | > 100 | – | > 100 | – | > 100 | – | – | > 100 | – | > 100 | > 100
COc1ccc(C(=O)COc2cccc(/C=C3\CSc4ccc(C)cc4C3=O)c2)cc1 | 25.1 | > 100 | 1.91 µM | 5.71 | 5.44 µM | 43.3 | 24 µM | > 100 | > 100 µM | > 100 | 15.8 µM | > 100 | 74.2 µM | > 100 | 27.9 µM | 1.98 µM | 5.25 | 2.03 µM | 4.74 | > 100
O=[N+]([O-])c1ccc2ncccc2c1Cl | 12.3 | 29.2 | 1.57 µM | 7.23 | 1.92 µM | 7.78 | 3.46 µM | 11.9 | 6.22 µM | > 100 | – | – | 3.13 µM | > 100 | 4.67 µM | 0.308 µM | 4.12 | 0.627 µM | 16 | > 100
